Conditions: in vivo
Experimental: Progesterone content in the plasma was determined by direct radio immuno assay (Coat-a-Count, DPC, USA).

- Time to return to undetectable basal plasma progesterone levels after insert removal: ≤ 24 h
Substance: poly (ε-caprolactone)
